From ChEMBL document CHEMBL1201862, “PubChem BioAssay data set” (2004)
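Growth conditions: 96-well plates. Treatment: test compound, 48 hours, 5 concentrations. Analysis: linear interpolation between bracketing concentrations; unreached endpoints set to highest concentration. GI50 marks 50% less growth.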 Activity calls are given as the source filed them. Cut-off read from the data, not from the text of the source: active = GI50 up to about 1.1 µM and inactive = higher.

Key:
Assay in all cases: inhibition of tumour cell growth, NCI panel, 48 h
[1] = system: Malme-3M
[2] = system: OVCAR-5
[3] = system: MDA-N
[4] = system: RPMI-8226
[5] = system: K562
[6] = system: MDA-MB-231
[7] = system: M14
[8] = system: SR
[9] = system: DU-145
[10] = system: SF-268
[11] = system: SN12C
[12] = system: U-251
[13] = system: CAKI-1
[14] = system: HCT-15
[15] = system: MDA-MB-435
[16] = system: Hs-578T
[17] = system: SK-MEL-28
[18] = system: NCI-H460
[19] = system: SW-620
[20] = system: RXF 393

Row | SMILES | GI50 [1] | GI50 [2] | GI50 [3] | GI50 [4] | GI50 [5] | GI50 [6] | GI50 [7] | GI50 [8] | GI50 [9] | GI50 [10] | GI50 [11] | GI50 [12] | GI50 [13] | GI50 [14] | GI50 [15] | GI50 [16] | GI50 [17] | GI50 [18] | GI50 [19] | GI50 [20]
1 | COc1ccc2c(c1)OCc1c-2oc2ccccc2c1=O | > 100 µM (inactive) | > 100 µM (inactive) | > 100 µM (inactive) | > 100 µM (inactive) | > 100 µM (inactive) | 30.1 µM (inactive) | > 100 µM (inactive) | > 100 µM (inactive) | > 100 µM (inactive) | 69.3 µM (inactive) | > 100 µM (inactive) | 35.8 µM (inactive) | > 100 µM (inactive) | > 100 µM | > 100 µM (inactive) |  |  |  |  | 
2 | c1ccc(C(NC2CCCCC2NCCNC2CCCCC2NC(c2ccccc2)(c2ccccc2)c2ccccc2)(c2ccccc2)c2ccccc2)cc1 (stereo not given) |  | > 100 µM (inactive) |  | 7.8 µM (inactive) | 44.5 µM (inactive) | > 100 µM (inactive) |  | 81.7 µM (inactive) | 96.6 µM (inactive) | 21.3 µM (inactive) | > 100 µM (inactive) | 13.9 µM (inactive) | 64.4 µM (inactive) | > 100 µM | 17.7 µM (inactive) | 11.7 µM (inactive) | > 100 µM (inactive) | 26.8 µM (inactive) | 22.6 µM (inactive) | 
3 | COc1ccc(OC)c(C(=O)c2cccc(C(=O)c3cc(OC)ccc3OC)n2)c1 | 80 µM (inactive) | 30.5 µM (inactive) | 17 µM (inactive) |  | 22.3 µM (inactive) | 58.7 µM (inactive) | 33.6 µM (inactive) | 32.7 µM (inactive) | 93.1 µM (inactive) | 63.4 µM (inactive) | 57.1 µM (inactive) | 27.4 µM (inactive) | 71.8 µM (inactive) | 33.1 µM |  | 27 µM (inactive) | 41 µM (inactive) | 36.3 µM (inactive) | 39.6 µM (inactive) | 5.12 µM (inactive)
4 | CNCCN[C@@H]1c2cc3c(cc2[C@@H](c2cc(OC)c(O)c(OC)c2)[C@H]2C(=O)OC[C@@H]21)OCO3 | 0.288 µM (active) | 0.966 µM (active) | 1.04 µM (active) | 0.0604 µM (active) | 0.177 µM (active) | 0.37 µM (active) | 0.394 µM (active) | 0.0122 µM (active) | 0.27 µM (active) | 0.258 µM (active) | 0.0738 µM (active) | 0.125 µM (active) | 0.264 µM (active) | 3.21 µM | 1.66 µM (inactive) |  | 0.665 µM (active) | < 0.01 µM (active) | 0.269 µM (active) | 0.229 µM (active)
5 | CCCCC(=O)Nc1ccc2cc(C(=O)OC)c(=O)[nH]c2n1 | > 100 µM (inactive) | > 100 µM (inactive) | > 100 µM (inactive) | > 100 µM (inactive) | > 100 µM (inactive) | > 100 µM (inactive) | > 100 µM (inactive) | > 100 µM (inactive) |  | > 100 µM (inactive) | > 100 µM (inactive) | > 100 µM (inactive) | > 100 µM (inactive) | > 100 µM | > 100 µM (inactive) |  | > 100 µM (inactive) | > 100 µM (inactive) | > 100 µM (inactive) | > 100 µM (inactive)
6 | O=C(/C=C/c1ccc(OCc2ccccc2)c(OCc2ccccc2)c1)OCc1ccccc1 | > 100 µM (inactive) | > 100 µM (inactive) | > 100 µM (inactive) | > 100 µM (inactive) | > 100 µM (inactive) | > 100 µM (inactive) | > 100 µM (inactive) | > 100 µM (inactive) | > 100 µM (inactive) | > 100 µM (inactive) | > 100 µM (inactive) | > 100 µM (inactive) | > 100 µM (inactive) | > 100 µM | > 100 µM (inactive) |  | > 100 µM (inactive) | > 100 µM (inactive) | > 100 µM (inactive) | > 100 µM (inactive)
7 | CCCCCCCCCCCCCCCCNc1ccn(C2CC(OP(=O)(O)OCC3OC(n4cc(CC)c(=O)[nH]c4=O)CC3O)C(CO)O2)c(=O)n1 (stereo not given) |  | 23.9 µM (inactive) |  | 17.8 µM (inactive) | 20.4 µM (inactive) | 35.2 µM (inactive) | 17.8 µM (inactive) | 22.4 µM (inactive) | 31.8 µM (inactive) | 15.3 µM (inactive) | 41.5 µM (inactive) | 26.8 µM (inactive) | 42.9 µM (inactive) | 28.1 µM | 46.9 µM (inactive) | 22.1 µM (inactive) | 21.4 µM (inactive) |  | 23.8 µM (inactive) | 13.7 µM (inactive)
8 | COc1ccc(-c2cc(-c3ccc(Nc4ccnc5cc(Cl)ccc45)cc3)[nH]c(=O)c2C#N)cc1 | > 100 µM (inactive) | > 100 µM (inactive) |  | > 100 µM (inactive) | > 100 µM (inactive) | > 100 µM (inactive) | > 100 µM (inactive) | > 100 µM (inactive) | > 100 µM (inactive) | > 100 µM (inactive) |  | > 100 µM (inactive) | > 100 µM (inactive) | > 100 µM | > 100 µM (inactive) | > 100 µM (inactive) | > 100 µM (inactive) | > 100 µM (inactive) | > 100 µM (inactive) | > 100 µM (inactive)
9 | Cn1c(Nc2ccccc2)c(/C=N\c2ccccc2)c(=O)n(C)c1=O |  | > 100 µM (inactive) | > 100 µM (inactive) | > 100 µM (inactive) | > 100 µM (inactive) | 61.4 µM (inactive) | > 100 µM (inactive) |  | > 100 µM (inactive) | 45.7 µM (inactive) | 69.3 µM (inactive) | 30 µM (inactive) |  |  | > 100 µM (inactive) |  | > 100 µM (inactive) | 56.2 µM (inactive) | > 100 µM (inactive) | 75.9 µM (inactive)
10 | CCCCCc1c(CCCC)c(O)nc2nc(NC(=O)CCCC)ccc12 | > 100 µM (inactive) | > 100 µM (inactive) | > 100 µM (inactive) | > 100 µM (inactive) | > 100 µM (inactive) | > 100 µM (inactive) | > 100 µM (inactive) | 51.9 µM (inactive) |  | > 100 µM (inactive) | > 100 µM (inactive) | > 100 µM (inactive) | > 100 µM (inactive) | > 100 µM | > 100 µM (inactive) |  | > 100 µM (inactive) | > 100 µM (inactive) | > 100 µM (inactive) | > 100 µM (inactive)
11 | O=C1C(=O)C(CCCO)(CCCO)CCCCCCCCC1(CCCO)CCCO | > 100 µM (inactive) | > 100 µM (inactive) | 86.9 µM (inactive) | < 0.01 µM (active) | 23.7 µM (inactive) |  | 37.4 µM (inactive) | 18.6 µM (inactive) | 75.7 µM (inactive) | 38.1 µM (inactive) | > 100 µM (inactive) | 66.5 µM (inactive) | > 100 µM (inactive) | > 100 µM | 61.2 µM (inactive) | 57.7 µM (inactive) | 41.9 µM (inactive) | > 100 µM (inactive) | > 100 µM (inactive) | 17.3 µM (inactive)
12 | C=C1CCC([N+](=O)[O-])[C@](C)(N=O)CC[C@@H]2C1CC2(C)C (stereo not given in full) | 22 µM (inactive) | 16.1 µM (inactive) | 11.6 µM (inactive) | 26 µM (inactive) | 17.3 µM (inactive) |  | 27.4 µM (inactive) | 8.57 µM (inactive) | > 100 µM (inactive) | 31.3 µM (inactive) | 32.4 µM (inactive) | 21.4 µM (inactive) | 34 µM (inactive) | 22.8 µM | > 10 µM (inactive) | 17.6 µM (inactive) | > 10 µM (inactive) | 19.1 µM (inactive) | 16.9 µM (inactive) | 
13 | CC1=CCC2CC1NC(=O)CCOCCC(=O)NC2(C)C (stereo not given) |  | > 100 µM (inactive) | > 100 µM (inactive) | > 100 µM (inactive) | > 100 µM (inactive) | > 100 µM (inactive) | > 100 µM (inactive) | > 100 µM (inactive) | > 100 µM (inactive) | > 100 µM (inactive) | > 100 µM (inactive) | > 100 µM (inactive) | > 100 µM (inactive) | > 100 µM | > 100 µM (inactive) |  | > 100 µM (inactive) | > 100 µM (inactive) | > 100 µM (inactive) | > 100 µM (inactive)
14 | CCSc1cc(C(=O)OC)c2n(c1=O)CCCC2 | > 100 µM (inactive) | > 100 µM (inactive) | > 100 µM (inactive) |  |  | > 100 µM (inactive) | > 100 µM (inactive) |  | > 100 µM (inactive) | > 100 µM (inactive) | > 100 µM (inactive) | > 100 µM (inactive) | > 100 µM (inactive) | > 100 µM | > 100 µM (inactive) | > 100 µM (inactive) | > 100 µM (inactive) |  | > 100 µM (inactive) | > 100 µM (inactive)
15 | CC[N+]1(C)CCC(O)(c2ccc(OC)cc2)C(C(=O)c2ccc(OC)cc2)C1 (stereo not given) | 6.44 µM (inactive) | 18.7 µM (inactive) | 16.6 µM (inactive) | 1.91 µM (inactive) | 2.25 µM (inactive) |  | 8.69 µM (inactive) | 2.34 µM (inactive) | 15.9 µM (inactive) | 21.2 µM (inactive) | 18.2 µM (inactive) | 1.54 µM (inactive) | 5.9 µM (inactive) | 10.2 µM | 16.8 µM (inactive) | 0.0368 µM (active) | 15.1 µM (inactive) | 21.8 µM (inactive) | 2.08 µM (inactive) | 7 µM (inactive)
16 | Cc1cc(NC(=O)C(=O)Cc2cnc3ccccc3n2)c(S(=O)(=O)O)cc1Cl | > 100 µM (inactive) | > 100 µM (inactive) |  | > 100 µM (inactive) | > 100 µM (inactive) | > 100 µM (inactive) | > 100 µM (inactive) |  | > 100 µM (inactive) | > 100 µM (inactive) | > 100 µM (inactive) | > 100 µM (inactive) | > 100 µM (inactive) | > 100 µM | > 100 µM (inactive) | > 100 µM (inactive) | > 100 µM (inactive) | > 100 µM (inactive) | > 100 µM (inactive) | 
